Measurements taken from ChEMBL document CHEMBL1240334, “Molecular basis of cyclin-CDK-CKI regulation by reversible binding of an inositol pyrophosphate” (Nat Chem Biol, 2008).
One block for each molecule: values may come before it. The source made the active and inactive calls. The calls are words filed in the database; no cut-off is given here.

Legend:
[1] = molecular target: T1, Pho80/Pho85 (Saccharomyces cerevisiae S288c) (UniProt P17157+P20052); test: Binding affinity of […]-labeled Pho81-MD to Saccharomyces cerevisiae Pho80-Pho85 by fluorescence binding assay relative to untreated control; format: protein-complex assay
[2] = molecular target: T2, Phosphate system positive regulatory protein PHO81 (Saccharomyces cerevisiae S288c, UniProt P17442); test: Inhibition of Saccharomyces cerevisiae Pho81-MD-dependent Pho80-Pho85 activity after 10 mins
T2 sequence (P17442 whole entry): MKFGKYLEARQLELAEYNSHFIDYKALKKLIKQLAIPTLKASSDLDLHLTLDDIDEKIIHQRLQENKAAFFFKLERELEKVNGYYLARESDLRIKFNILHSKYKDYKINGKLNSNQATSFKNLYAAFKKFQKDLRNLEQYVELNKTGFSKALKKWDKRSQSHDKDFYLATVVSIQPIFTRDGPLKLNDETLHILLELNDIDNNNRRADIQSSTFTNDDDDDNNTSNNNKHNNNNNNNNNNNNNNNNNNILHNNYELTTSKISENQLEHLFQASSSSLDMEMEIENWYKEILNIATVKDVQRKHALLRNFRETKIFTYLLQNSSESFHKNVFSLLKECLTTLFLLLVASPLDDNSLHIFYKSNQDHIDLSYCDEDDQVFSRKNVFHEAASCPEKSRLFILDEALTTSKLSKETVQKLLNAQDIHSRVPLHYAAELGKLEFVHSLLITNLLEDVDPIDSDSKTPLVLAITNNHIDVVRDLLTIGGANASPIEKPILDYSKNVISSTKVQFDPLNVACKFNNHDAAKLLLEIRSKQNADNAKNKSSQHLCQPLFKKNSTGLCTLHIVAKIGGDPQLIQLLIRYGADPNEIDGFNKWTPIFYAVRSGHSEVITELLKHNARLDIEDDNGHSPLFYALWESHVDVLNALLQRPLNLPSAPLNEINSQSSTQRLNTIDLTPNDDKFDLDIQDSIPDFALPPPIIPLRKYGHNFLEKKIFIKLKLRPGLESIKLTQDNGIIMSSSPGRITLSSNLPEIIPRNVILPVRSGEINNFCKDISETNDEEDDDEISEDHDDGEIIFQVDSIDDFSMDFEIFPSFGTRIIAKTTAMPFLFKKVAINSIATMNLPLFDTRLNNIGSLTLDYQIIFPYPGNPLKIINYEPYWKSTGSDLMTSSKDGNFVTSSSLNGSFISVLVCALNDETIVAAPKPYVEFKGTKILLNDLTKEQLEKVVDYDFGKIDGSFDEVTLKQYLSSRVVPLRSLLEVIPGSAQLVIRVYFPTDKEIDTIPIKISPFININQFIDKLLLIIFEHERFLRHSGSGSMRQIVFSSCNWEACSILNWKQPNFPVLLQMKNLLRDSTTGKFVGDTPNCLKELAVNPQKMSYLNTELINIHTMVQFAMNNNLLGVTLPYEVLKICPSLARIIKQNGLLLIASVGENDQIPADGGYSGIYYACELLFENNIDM

[3] = molecular target: T1, Pho80/Pho85 (Saccharomyces cerevisiae S288c); test: Binding affinity of Pho81-MD S1-segment to Saccharomyces cerevisiae Pho80-Pho85; format: protein-complex assay
[4] = molecular target: T1, Pho80/Pho85 (Saccharomyces cerevisiae S288c); test: Binding affinity of Pho81-MD S2-segment to Saccharomyces cerevisiae Pho80-Pho85; format: protein-complex assay
[5] = molecular target: T3, Pho80/Pho85/Pho81 complex (Saccharomyces cerevisiae S288c, UniProt P17157+P17442+P20052); test: Competitive inhibition of Saccharomyces cerevisiae Pho80-Pho85-Pho81-MD catalyzed phosphorylation of Pho4 assessed as increase in substrate concentration by line-weaverberk plot assay; format: protein-complex assay
T3 sequence (P17157 whole entry, one chain of several): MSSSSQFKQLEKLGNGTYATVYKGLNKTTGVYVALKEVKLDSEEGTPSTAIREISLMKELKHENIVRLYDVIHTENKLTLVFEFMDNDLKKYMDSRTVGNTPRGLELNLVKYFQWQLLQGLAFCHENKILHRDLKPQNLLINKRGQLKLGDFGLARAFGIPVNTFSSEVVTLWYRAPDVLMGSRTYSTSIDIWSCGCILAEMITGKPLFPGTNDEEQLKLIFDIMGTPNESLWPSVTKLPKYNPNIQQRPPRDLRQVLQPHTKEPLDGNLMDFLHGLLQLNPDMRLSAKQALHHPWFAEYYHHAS
T3 sequence (P20052 whole entry, one chain of several): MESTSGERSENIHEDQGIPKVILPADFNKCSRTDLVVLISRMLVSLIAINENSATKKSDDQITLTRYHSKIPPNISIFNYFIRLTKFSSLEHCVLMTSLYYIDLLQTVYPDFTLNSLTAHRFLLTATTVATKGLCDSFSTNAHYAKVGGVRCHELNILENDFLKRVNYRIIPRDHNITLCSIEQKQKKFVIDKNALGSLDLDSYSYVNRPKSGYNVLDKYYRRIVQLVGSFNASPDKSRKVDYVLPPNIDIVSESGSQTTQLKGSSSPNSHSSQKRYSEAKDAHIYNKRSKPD

[6] = molecular target: T4, Pho80/Pho85/Pho81 complex (Saccharomyces cerevisiae S288c) (UniProt P17157+P17442+P20052); test: Inhibition of Saccharomyces cerevisiae Pho80-Pho85-Pho81-MD catalyzed phosphorylation of Pho4 D175V distal-site mutant; format: protein-complex assay
[7] = molecular target: T3, Pho80/Pho85/Pho81 complex; test: Inhibition of Saccharomyces cerevisiae Pho80-Pho85-Pho81-MD catalyzed phosphorylation of Pho4-site 6 peptide; format: protein-complex assay
[8] = molecular target: T1, Pho80/Pho85 (Saccharomyces cerevisiae S288c); test: Inhibition of Saccharomyces cerevisiae Pho80-Pho85 at 50 uM in presence of > 10 uM Pho81-MD; format: protein-complex assay
[9] = molecular target: T1, Pho80/Pho85 (Saccharomyces cerevisiae S288c); test: Inhibition of Saccharomyces cerevisiae Pho80-Pho85 at 100 uM in presence of > 10 uM Pho81-MD; format: protein-complex assay
[10] = molecular target: T4, Pho80/Pho85/Pho81 complex (Saccharomyces cerevisiae S288c); test: Inhibition of Saccharomyces cerevisiae Pho80-Pho85-Pho81-MD catalyzed phosphorylation of wild type Pho4 distal-site assessed as increase in substrate concentration; format: protein-complex assay
[11] = molecular target: T4, Pho80/Pho85/Pho81 complex (Saccharomyces cerevisiae S288c); test: Inhibition of Saccharomyces cerevisiae Pho80-Pho85-Pho81-MD catalyzed phosphorylation of Pho4 I22T distal-site mutant assessed as increase in substrate concentration; format: protein-complex assay
[12] = molecular target: T4, Pho80/Pho85/Pho81 complex (Saccharomyces cerevisiae S288c); test: Inhibition of Saccharomyces cerevisiae Pho80-Pho85-Pho81-MD catalyzed phosphorylation of Pho4 F29I distal-site mutant assessed as increase in substrate concentration; format: protein-complex assay
[13] = molecular target: T4, Pho80/Pho85/Pho81 complex (Saccharomyces cerevisiae S288c); test: Inhibition of Saccharomyces cerevisiae Pho80-Pho85-Pho81-MD catalyzed phosphorylation of Pho4 P174L distal-site mutant assessed as increase in substrate concentration; format: protein-complex assay
[14] = molecular target: T4, Pho80/Pho85/Pho81 complex (Saccharomyces cerevisiae S288c); test: Inhibition of Saccharomyces cerevisiae Pho80-Pho85-Pho81-MD catalyzed phosphorylation of Pho4 S176N distal-site mutant assessed as increase in substrate concentration; format: protein-complex assay
[15] = molecular target: T4, Pho80/Pho85/Pho81 complex (Saccharomyces cerevisiae S288c); test: Displacement of [32P]-labeled 6-inositol heptakisphosphate from Pho80-Pho85-Pho81-MD complex in Saccharomyces cerevisiae at 400 uM at 30 degC by electrophoretic mobility shift assay; format: protein-complex assay; details: tested as the 32P-labelled form
[16] = molecular target: T4, Pho80/Pho85/Pho81 complex (Saccharomyces cerevisiae S288c); test: Displacement of [32P]-labeled 6-inositol heptakisphosphate from Pho80-Pho85-Pho81-MD complex in Saccharomyces cerevisiae at 400 uM at 4 degC by electrophoretic mobility shift assay; format: protein-complex assay; details: tested as the 32P-labelled form
[17] = molecular target: T4, Pho80/Pho85/Pho81 complex (Saccharomyces cerevisiae S288c); test: Displacement of myo-inositol hexakisphosphate from Pho80-Pho85-Pho81-MD complex in Saccharomyces cerevisiae at 0.2 uM 30 mins by electrophoretic mobility shift assay; format: protein-complex assay
[18] = molecular target: T4, Pho80/Pho85/Pho81 complex (Saccharomyces cerevisiae S288c); test: Binding affinity to Saccharomyces cerevisiae Pho80-Pho85-Pho81-MD complex at 400 uM after 30 mins at 30 degC by electrophoretic mobility shift assay; format: protein-complex assay
[19] = molecular target: T4, Pho80/Pho85/Pho81 complex (Saccharomyces cerevisiae S288c); test: Binding affinity to Saccharomyces cerevisiae Pho80-Pho85-Pho81-MD complex at 400 uM after 30 mins at 4 degC by electrophoretic mobility shift assay; format: protein-complex assay
[20] = molecular target: T4, Pho80/Pho85/Pho81 complex (Saccharomyces cerevisiae S288c); test: Displacement of [32P]-labeled 4-inositol heptakisphosphate from Pho80-Pho85-Pho81-MD complex in Saccharomyces cerevisiae at 400 uM 30 mins at 30 degC by electrophoretic mobility shift assay; format: protein-complex assay; details: tested as the 32P-labelled form
[21] = molecular target: T4, Pho80/Pho85/Pho81 complex (Saccharomyces cerevisiae S288c); test: Displacement of [32P]-labeled 4-inositol heptakisphosphate from Pho80-Pho85-Pho81-MD complex in Saccharomyces cerevisiae at 400 uM 30 mins at 4 degC by electrophoretic mobility shift assay; format: protein-complex assay; details: tested as the 32P-labelled form
[22] = molecular target: T4, Pho80/Pho85/Pho81 complex (Saccharomyces cerevisiae S288c); test: Binding affinity to Saccharomyces cerevisiae Pho80-Pho85-Pho81-MD complex at 0.2 uM after 30 mins by electrophoretic mobility shift assay in presence of 6mM MgCl2; format: protein-complex assay; details: tested as the 32P-labelled form
[23] = molecular target: T4, Pho80/Pho85/Pho81 complex (Saccharomyces cerevisiae S288c); test: Binding affinity to Saccharomyces cerevisiae Pho80-Pho85-Pho81-MD complex at 0.2 uM after 30 mins by electrophoretic mobility shift assay in presence of 6mM MnCl2; format: protein-complex assay; details: tested as the 32P-labelled form
[24] = molecular target: T4, Pho80/Pho85/Pho81 complex (Saccharomyces cerevisiae S288c); test: Binding affinity to Saccharomyces cerevisiae Pho80-Pho85-Pho81-MD complex at 0.2 uM after 30 mins by electrophoretic mobility shift assay in presence of 6mM CaCl2; format: protein-complex assay; details: tested as the 32P-labelled form
[25] = molecular target: T3, Pho80/Pho85/Pho81 complex; test: Binding affinity to Saccharomyces cerevisiae Pho80-Pho85-Pho81-MD complex from 2uM to 80 uM after 30 mins by electrophoretic mobility shift assay in presence of 6 mM MgCl2; format: protein-complex assay; details: read-out: Kd(app)
[26] = molecular target: T4, Pho80/Pho85/Pho81 complex (Saccharomyces cerevisiae S288c); test: Displacement of 5-Inositol heptakisphosphate from Pho80-Pho85-Pho81-MD complex in Saccharomyces cerevisiae at 0.2 uM 30 mins by electrophoretic mobility shift assay; format: protein-complex assay
[27] = molecular target: T2, Phosphate system positive regulatory protein PHO81; test: Inhibition of Saccharomyces cerevisiae Pho81-MD-dependent Pho80-Pho85 activity after 30 mins
[28] = molecular target: T2, Phosphate system positive regulatory protein PHO81; test: Inhibition of Saccharomyces cerevisiae Pho81-MD-MD dependent Pho80-Pho85 activity after 60 mins
[29] = molecular target: T2, Phosphate system positive regulatory protein PHO81; test: Inhibition of Saccharomyces cerevisiae Pho81-MD-MD dependent Pho80-Pho85 activity after 120 mins
[30] = molecular target: T4, Pho80/Pho85/Pho81 complex (Saccharomyces cerevisiae S288c); test: Binding affinity to Saccharomyces cerevisiae Pho80-Pho85-Pho81-MD complex at 0.2 uM after 30 mins by electrophoretic mobility shift assay in presence of 6 mM ZnSO4; format: protein-complex assay; details: tested as the 32P-labelled form
[31] = molecular target: T4, Pho80/Pho85/Pho81 complex (Saccharomyces cerevisiae S288c); test: Binding affinity to Saccharomyces cerevisiae Pho80-Pho85-Pho81-MD complex at 0.2 uM after 30 mins at by electrophoretic mobility shift assay; details: tested as the 32P-labelled form

Activity [1]: inactive
SMILES: O=P(O)(O)O[C@H]1[C@@H](OP(=O)(O)O)[C@H](OP(=O)(O)O)[C@@H](OP(=O)(O)OP(=O)(O)O)[C@H](OP(=O)(O)O)[C@H]1OP(=O)(O)O

IC50 [2]: 23 µM
Activity [3]: Active
Activity [4]: inactive
Ki [5]: 19 µM
inhibition [6]: Active
IC50 [7]: 25 µM
fold change (FC) [1]: 5
Activity [8]: inactive
Activity [9]: inactive
inhibition [10]: Active
inhibition [11]: Active
inhibition [12]: Active
inhibition [13]: Active
inhibition [14]: Active
Activity [15]: Active
Activity [16]: inactive
Activity [17]: Active
Activity [18]: inactive
Activity [19]: inactive
Activity [20]: Active
Activity [21]: inactive
Activity [22]: Active
Activity [23]: Active
Activity [24]: inactive
Kd [25]: 20.3 µM
Activity [26]: Active
IC50 [27]: 14 µM
IC50 [28]: 31 µM
IC50 [29]: 22 µM
Activity [30]: Active
Activity [31]: inactive
SMILES: O=P(O)(O)O[C@H]1[C@@H](OP(=O)(O)O)[C@@H](OP(=O)(O)O)[C@H](OP(=O)(O)OP(=O)(O)O)[C@@H](OP(=O)(O)O)[C@@H]1OP(=O)(O)O
